Data set [1] concerns the target T1, PDE5 enzyme (Homo sapiens, UniProt O76074).
T1 construct: The PDE5 enzyme isolated from human platelets; from tissue; host or cells: human platelets
The experiment in a line: Method 1: Human Platelet PDE5 Enzyme Inhibition Scintillation Proximity Assay. The data set is classed as biochemical. Conditions: METHOD 1: PDE5 IC50, Table B, WO2004096810 examples. Put shortly: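 IC50 fitted from 10-point half-log dose-response curves run in duplicate, with inhibition relative to uninhibited controls. SPA beads capture [3H]GMP produced when platelet-derived PDE5 acts for 60 min at 30 °C on 500 nM cGMP (3:1 cold:labelled) in pH 7.4 Tris/MgCl2/BSA buffer.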

The target of data set [2] is PDE6 enzyme. The experiment in a line: Method 2A: Alternative Human Retina PDE6 Enzyme Inhibition Scintillation Proximity Assay (SPA). In kind it is biochemical. The settings on record: Table F, WO2004096810 examples.
Description: Lift the retina with care and locate the optic nerve. Cut through the optic nerve and transfer the retina to a small dish containing a few ml of homogenisation buffer. Gently float the retina out on the surface of the buffer and remove any obvious pigmented material from the iris. Place the retina in a second dish with clean buffer to remove last traces of pigment and then transfer to a 50 ml Corning Costar centrifuge tube (Sigma) and keep on ice. • PDE6 Isolation and Purification from Retina: Allow 2 mls of the homogenisation buffer per bovine retina and 1 ml per retina for dog and human. Homogenise using hand-held homogeniser 3×5 second bursts cooling on ice between each burst. Filter homogenate through two layers of surgical gauze. Spin at 100,000 g for 60 minutes at 4° C. […] Run through FPLC (Pharmacia FPLC LKB/FRAC-100, Pharmacia) or aliquot and store in liquid nitrogen as needed. Method 2A: Alternative Human Retina PDE6 Enzyme Inhibition Scintillation Proximity Assay (SPA)
The inhibition of PDE6 enzyme activity by a test compound also can be measured in accordance with the in vitro assay of Method 1A, but instead using semi-purified PDE6 enzyme isolated from human, bovine or canine retina in place of PDE5 enzyme. […] [3H]GMP binds to yttrium silicate SPA beads and is detected by scintillation counting.
The test system of data set [3] is Chinese hamster ovary (CHO) cells. The experiment in a line: Method 7: Micronucleus Assay. In kind it is cell-based. Further details: key: Negative: A negative result identifies no genotoxic hazard defined by the assays specific endpoint; Positive: A positive result identifies a genotoxic hazard defined by the assays specific endpoint; Equivocal: fails to display a negative or positive result as defined by established evaluation criteria; Inconclusive: the test compound has been evaluated in an invalid assay test. The settings on record: in vitro, with and without S9. As for the experimental part:
Method 7: Micronucleus Assay
An in vitro micronucleus assay can be used to determine the mutagenic potential of a test compound. This assay detects chromosome abnormalities resulting from exposure to a test compound by measuring the formation of small membrane-bound DNA fragments such as micronuclei in the cytoplasm of interphase cells.
The assay is conducted using Chinese hamster ovary (CHO) cells under different test conditions in the absence and presence of metabolic activation. Concordance in outcomes between this screening assay and in vitro cytogenetics is around 85%. Direct (−S9) testing is conducted using 24 hour or 3 hour continuous treatments, whereas testing with metabolic activation (+S9) involves a 3 hour treatment. Clastogenicity is indicated by an increase in numbers of micronucleated cells in the first interphase after exposure (in cytokinesis-blocked binucleated cells). The results are compared to the level of cytotoxicity (measured by the proportion of binucleated cells) a test compound produces. […] A test compound displaying a negative response has not fulfilled specific evaluation criteria for the assay which may include one or both of the following: 1) a reproducible concentration dependent increase in the specific assay endpoint when compared to a negative (vehicle) control and/or 2) one or more test concentrations achieving a minimum fold increase in the specific endpoint over controls. • Positive—A positive result identifies a genotoxic hazard defined by the assays specific endpoint (ex. positive in vitro micronucleus). A test compound displaying a positive response has fulfilled specific evaluation criteria for the assay which may include one or both of the following: 1) a reproducible concentration dependent increase in the specific assay endpoint when compared to a negative (vehicle) control and/or 2) one or more test concentrations achieving a minimum fold increase in the specific endpoint over controls. • Equivocal—An equivocal result is reserved for situations where the test compound has been evaluated in a valid assay test or tests (i.e. assay acceptability criteria satisfactory), but fails to display a negative or positive result as defined by established evaluation criteria. This may convey the presence of a weak positive response that requires additional repeat testing or eventual confirmatory testing case-by-case. • Inconclusive—An inconclusive result is reserved for situations where the test compound has been evaluated in an invalid assay test (i.e. assay acceptability criteria unsatisfactory for technical reasons, ex. negative or positive controls fail to respond appropriately). Repeat testing is recommended in order to establish a valid assay test result.

pIC50: −log10 of the molar value.

The values that follow come from patent publication US8518956B2, “1-(1-(2-ethoxyethyl)-3-ethyl-7-(4-methylpyridin-2-ylamino)-1H-pyrazolo[4,3-d]pyrimidin-5-yl) piperidine-4-carboxylic acid and salts thereof” (priority 2005, dated 2013).

With `Cc1ccnc(Nc2nc(N3CCC(C(=O)O)CC3)nc3c(C)nn(CCOCC(F)(F)F)c23)c1` [WO2004096810 Example 261], the negative logarithm of the IC50 (pIC50) in data set [1] was 9.24; in data set [2], 6.96. Moreover, in data set [3], the “METHOD 7: MICRONUCLEUS ASSAY” value is reported as “Positive”.

On to `Cc1cc(Nc2nc(N3CCC(C(=O)O)CC3)nc3c(C)nn(CCOCC(F)(F)F)c23)ncn1` [WO2004096810 Example 262], for which the negative logarithm of the IC50 (pIC50) in data set [1] was 9.03; in data set [2] it was 7.18. The “METHOD 7: MI[…]” value in data set [3] is reported as “Equivocal”.

With `CCc1nn(CCOCC(F)(F)F)c2c(Nc3cc(C)ncn3)nc(N3CCC(C(=O)O)CC3)nc12` [WO2004096810 Example 263], the figures for the negative logarithm of the IC50 (pIC50) in data set [1] and in data set [2] were 9.57 and 7.51, respectively. Also, the “METHOD 7: MICRONUCLEUS ASSAY” value in data set [3] is “Positive”.
